Laboratory results from BigSolDB 2.1.

O=S(=O)([O-])c1cccc2ccccc12.[Na+]
solubility (mole fraction)
Details | 278.15 K | 283.15 K | 288.15 K | 293.15 K | 298.15 K | 303.15 K | 308.15 K | 313.15 K | 318.15 K | 323.15 K
in 1,4-dioxane | 0.0004 | 0.000497 | 0.000602 | 0.000722 | 0.000842 | 0.00101 | 0.00121 | 0.00143 | 0.00169 | 0.00203
in acetone | 9.36e-05 | 0.000122 | 0.000156 | 0.000197 | 0.00024 | 0.000288 | 0.000351 | 0.000417 | 0.000501 | 0.0006
in cyclohexanone | 0.000222 | 0.000299 | 0.00038 | 0.000481 | 0.000603 | 0.000743 | 0.0009 | 0.00108 | 0.00127 | 0.00152
in ethanol | 0.000297 | 0.000386 | 0.000513 | 0.000668 | 0.000829 | 0.00106 | 0.00132 | 0.00167 | 0.00217 | 0.00277
in ethyl acetate | 4.49e-05 | 5.77e-05 | 7.34e-05 | 9.37e-05 | 0.000119 | 0.000148 | 0.000184 | 0.000227 | 0.000269 | 0.000311
in isopropanol | 0.000108 | 0.000145 | 0.000204 | 0.000275 | 0.000351 | 0.000458 | 0.000588 | 0.000727 | 0.000886 | 0.00109
